From ChEMBL document CHEMBL3991601, “The target landscape of clinical kinase drugs” (Science, 2017)
The source made the active and inactive calls. On the calls: in the data inactive means no Kd found up to 30 µM.

Assays:
[1] = target: T1, Long-chain-fatty-acid--CoA ligase 5 (Homo sapiens, UniProt Q9ULC5)
T1 sequence (Q9ULC5 whole entry): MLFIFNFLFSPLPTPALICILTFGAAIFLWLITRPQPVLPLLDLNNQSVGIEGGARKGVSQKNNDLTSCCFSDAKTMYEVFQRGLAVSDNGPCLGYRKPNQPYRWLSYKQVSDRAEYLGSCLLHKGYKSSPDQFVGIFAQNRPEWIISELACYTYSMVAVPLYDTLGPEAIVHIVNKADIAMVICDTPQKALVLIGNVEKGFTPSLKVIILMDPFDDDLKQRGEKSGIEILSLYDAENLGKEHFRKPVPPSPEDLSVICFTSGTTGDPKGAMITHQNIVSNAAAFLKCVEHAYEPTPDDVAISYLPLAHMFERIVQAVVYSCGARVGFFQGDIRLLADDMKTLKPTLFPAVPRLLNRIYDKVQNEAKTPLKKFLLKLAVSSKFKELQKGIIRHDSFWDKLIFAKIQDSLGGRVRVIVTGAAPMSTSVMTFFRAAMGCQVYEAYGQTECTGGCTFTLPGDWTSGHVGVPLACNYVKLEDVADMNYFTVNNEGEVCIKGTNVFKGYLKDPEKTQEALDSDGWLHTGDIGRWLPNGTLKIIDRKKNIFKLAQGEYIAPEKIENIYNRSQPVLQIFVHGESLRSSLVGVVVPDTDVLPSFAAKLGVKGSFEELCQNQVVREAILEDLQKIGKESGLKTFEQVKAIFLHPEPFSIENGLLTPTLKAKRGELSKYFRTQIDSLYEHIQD

[2] = target: Uncharacterized aarF domain-containing protein kinase 5 (Homo sapiens, UniProt Q3MIX3)
[3] = target: MAP kinase-activated protein kinase 3 (Homo sapiens, UniProt Q16644)
[4] = target: Serine/threonine-protein kinase Nek7 (Homo sapiens, UniProt Q8TDX7)
[5] = target: Serine/threonine-protein kinase PAK 6 (Homo sapiens, UniProt Q9NQU5)
[6] = target: Serine/threonine-protein kinase pim-2 (Homo sapiens, UniProt Q9P1W9)
[7] = target: T2, Protein kinase C zeta type (Homo sapiens, UniProt Q05513)
T2 sequence (Q05513 whole entry): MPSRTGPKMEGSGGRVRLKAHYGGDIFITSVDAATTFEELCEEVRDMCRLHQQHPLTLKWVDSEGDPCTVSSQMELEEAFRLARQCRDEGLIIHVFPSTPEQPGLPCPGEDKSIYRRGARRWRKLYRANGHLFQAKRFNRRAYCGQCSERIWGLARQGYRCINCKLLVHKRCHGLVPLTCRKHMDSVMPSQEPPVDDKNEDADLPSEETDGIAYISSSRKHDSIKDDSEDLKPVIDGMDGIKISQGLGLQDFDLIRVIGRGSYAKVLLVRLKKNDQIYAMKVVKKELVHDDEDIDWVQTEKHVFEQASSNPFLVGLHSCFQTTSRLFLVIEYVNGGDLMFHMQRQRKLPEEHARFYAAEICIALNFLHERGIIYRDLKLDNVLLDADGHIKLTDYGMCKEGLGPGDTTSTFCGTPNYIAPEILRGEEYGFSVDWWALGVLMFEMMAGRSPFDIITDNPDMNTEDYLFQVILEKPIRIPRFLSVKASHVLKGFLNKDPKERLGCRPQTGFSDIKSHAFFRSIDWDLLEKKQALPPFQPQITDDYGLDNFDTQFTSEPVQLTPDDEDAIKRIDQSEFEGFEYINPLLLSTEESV

[8] = target: Serine/threonine-protein kinase 38 (Homo sapiens, UniProt Q15208)
[9] = target: Serine/threonine-protein kinase 38-like (Homo sapiens, UniProt Q9Y2H1)
[10] = target: Cell division cycle 7-related protein kinase (Homo sapiens, UniProt O00311)
[11] = target: Dual specificity protein kinase CLK4 (Homo sapiens, UniProt Q9HAZ1)
UMP-CMP kinase = target: T3, UMP-CMP kinase (Homo sapiens, UniProt P30085)
T3 sequence (P30085 whole entry): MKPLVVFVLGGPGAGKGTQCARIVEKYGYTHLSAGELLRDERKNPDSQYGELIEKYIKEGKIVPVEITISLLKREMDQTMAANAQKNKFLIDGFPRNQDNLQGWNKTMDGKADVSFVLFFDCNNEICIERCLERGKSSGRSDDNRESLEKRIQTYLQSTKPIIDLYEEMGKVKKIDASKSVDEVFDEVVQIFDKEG

[12] = target: T4, Electron transfer flavoprotein subunit beta (Homo sapiens, UniProt P38117)
T4 sequence (P38117 whole entry): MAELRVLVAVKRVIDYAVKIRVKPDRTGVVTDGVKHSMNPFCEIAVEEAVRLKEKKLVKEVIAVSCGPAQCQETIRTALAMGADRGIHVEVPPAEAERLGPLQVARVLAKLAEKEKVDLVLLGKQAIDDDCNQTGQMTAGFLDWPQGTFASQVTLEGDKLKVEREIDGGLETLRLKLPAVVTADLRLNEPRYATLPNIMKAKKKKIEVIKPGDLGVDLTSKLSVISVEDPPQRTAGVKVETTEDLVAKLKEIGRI

[13] = target: Serine/threonine-protein kinase 24 (Homo sapiens, UniProt Q9Y6E0)
[14] = target: T5, Dual specificity mitogen-activated protein kinase kinase 4 (Homo sapiens, UniProt P45985)
T5 sequence (P45985 whole entry): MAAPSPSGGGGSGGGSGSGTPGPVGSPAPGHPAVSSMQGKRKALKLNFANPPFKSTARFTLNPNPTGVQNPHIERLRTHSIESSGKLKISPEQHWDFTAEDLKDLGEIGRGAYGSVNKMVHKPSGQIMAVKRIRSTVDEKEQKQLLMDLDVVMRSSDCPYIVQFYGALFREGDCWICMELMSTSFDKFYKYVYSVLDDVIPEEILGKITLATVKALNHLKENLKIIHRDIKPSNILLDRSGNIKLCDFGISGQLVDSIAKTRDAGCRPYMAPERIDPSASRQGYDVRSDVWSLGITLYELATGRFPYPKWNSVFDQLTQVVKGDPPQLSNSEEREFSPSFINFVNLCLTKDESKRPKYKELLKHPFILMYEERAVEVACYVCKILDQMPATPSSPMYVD

Chain of Uncharacterized aarF domain-containing protein kinase 5 (Q3MIX3 whole entry, the tested form may be a part): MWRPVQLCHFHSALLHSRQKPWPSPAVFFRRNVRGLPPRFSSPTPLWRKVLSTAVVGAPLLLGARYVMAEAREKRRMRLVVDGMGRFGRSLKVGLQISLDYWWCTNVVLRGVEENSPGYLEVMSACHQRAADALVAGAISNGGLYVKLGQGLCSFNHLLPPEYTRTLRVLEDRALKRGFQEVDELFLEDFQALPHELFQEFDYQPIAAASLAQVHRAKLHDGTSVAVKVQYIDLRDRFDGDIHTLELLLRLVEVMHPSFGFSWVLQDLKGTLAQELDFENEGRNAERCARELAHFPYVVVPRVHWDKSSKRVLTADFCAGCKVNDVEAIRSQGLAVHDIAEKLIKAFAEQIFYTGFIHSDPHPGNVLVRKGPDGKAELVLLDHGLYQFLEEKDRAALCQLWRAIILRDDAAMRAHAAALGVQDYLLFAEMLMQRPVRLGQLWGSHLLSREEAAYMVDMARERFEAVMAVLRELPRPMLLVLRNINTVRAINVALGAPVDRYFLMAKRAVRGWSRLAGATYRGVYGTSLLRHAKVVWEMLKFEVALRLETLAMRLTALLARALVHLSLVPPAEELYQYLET
Chain of Cell division cycle 7-related protein kinase (O00311 whole entry): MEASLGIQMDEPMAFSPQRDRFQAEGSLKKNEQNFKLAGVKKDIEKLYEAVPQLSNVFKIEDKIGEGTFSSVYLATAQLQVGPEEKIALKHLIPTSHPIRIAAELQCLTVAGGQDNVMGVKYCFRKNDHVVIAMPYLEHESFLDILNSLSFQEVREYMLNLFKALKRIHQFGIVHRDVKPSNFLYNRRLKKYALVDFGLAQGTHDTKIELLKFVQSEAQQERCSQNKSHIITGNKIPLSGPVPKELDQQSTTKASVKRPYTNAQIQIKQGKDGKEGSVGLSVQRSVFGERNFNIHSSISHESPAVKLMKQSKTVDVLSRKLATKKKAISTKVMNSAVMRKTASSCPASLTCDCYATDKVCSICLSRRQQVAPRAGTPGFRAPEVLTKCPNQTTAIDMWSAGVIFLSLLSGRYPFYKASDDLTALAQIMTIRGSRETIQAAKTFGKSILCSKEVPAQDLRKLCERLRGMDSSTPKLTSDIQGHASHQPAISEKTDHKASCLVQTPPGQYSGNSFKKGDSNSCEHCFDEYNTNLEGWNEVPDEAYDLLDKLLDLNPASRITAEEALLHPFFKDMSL
Chain of Serine/threonine-protein kinase 38-like (Q9Y2H1 whole entry): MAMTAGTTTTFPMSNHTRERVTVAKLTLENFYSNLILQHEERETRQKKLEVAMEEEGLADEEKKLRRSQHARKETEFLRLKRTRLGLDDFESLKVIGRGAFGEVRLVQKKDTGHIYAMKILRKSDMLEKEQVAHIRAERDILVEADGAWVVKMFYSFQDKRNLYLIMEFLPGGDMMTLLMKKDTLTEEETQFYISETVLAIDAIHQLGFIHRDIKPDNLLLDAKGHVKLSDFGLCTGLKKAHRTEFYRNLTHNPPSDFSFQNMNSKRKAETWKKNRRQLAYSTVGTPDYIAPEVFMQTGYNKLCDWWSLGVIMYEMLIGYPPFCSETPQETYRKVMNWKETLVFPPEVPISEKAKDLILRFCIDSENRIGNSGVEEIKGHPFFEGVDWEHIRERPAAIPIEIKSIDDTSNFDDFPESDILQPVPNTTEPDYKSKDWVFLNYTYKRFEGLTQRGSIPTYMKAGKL
Chain of Serine/threonine-protein kinase Nek7 (Q8TDX7 whole entry): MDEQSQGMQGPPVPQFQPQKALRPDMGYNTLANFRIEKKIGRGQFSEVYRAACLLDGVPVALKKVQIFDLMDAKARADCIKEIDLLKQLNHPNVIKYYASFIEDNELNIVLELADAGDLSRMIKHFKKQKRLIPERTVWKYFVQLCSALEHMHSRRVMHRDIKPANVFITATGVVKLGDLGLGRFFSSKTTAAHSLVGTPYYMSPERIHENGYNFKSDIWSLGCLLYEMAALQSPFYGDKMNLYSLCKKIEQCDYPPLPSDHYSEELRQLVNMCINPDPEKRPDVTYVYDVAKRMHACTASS
Chain of MAP kinase-activated protein kinase 3 (Q16644 whole entry): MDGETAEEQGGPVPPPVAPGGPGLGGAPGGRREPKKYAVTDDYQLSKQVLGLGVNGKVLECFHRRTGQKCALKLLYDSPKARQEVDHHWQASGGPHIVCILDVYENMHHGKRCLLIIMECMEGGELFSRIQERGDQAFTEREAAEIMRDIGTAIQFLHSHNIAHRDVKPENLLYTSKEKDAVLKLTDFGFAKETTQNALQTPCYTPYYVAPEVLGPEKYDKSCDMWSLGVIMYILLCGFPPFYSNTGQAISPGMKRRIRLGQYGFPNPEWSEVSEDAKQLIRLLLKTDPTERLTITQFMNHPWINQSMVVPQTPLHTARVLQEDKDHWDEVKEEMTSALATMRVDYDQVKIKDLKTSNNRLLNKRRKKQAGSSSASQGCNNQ
Chain of Serine/threonine-protein kinase PAK 6 (Q9NQU5 whole entry): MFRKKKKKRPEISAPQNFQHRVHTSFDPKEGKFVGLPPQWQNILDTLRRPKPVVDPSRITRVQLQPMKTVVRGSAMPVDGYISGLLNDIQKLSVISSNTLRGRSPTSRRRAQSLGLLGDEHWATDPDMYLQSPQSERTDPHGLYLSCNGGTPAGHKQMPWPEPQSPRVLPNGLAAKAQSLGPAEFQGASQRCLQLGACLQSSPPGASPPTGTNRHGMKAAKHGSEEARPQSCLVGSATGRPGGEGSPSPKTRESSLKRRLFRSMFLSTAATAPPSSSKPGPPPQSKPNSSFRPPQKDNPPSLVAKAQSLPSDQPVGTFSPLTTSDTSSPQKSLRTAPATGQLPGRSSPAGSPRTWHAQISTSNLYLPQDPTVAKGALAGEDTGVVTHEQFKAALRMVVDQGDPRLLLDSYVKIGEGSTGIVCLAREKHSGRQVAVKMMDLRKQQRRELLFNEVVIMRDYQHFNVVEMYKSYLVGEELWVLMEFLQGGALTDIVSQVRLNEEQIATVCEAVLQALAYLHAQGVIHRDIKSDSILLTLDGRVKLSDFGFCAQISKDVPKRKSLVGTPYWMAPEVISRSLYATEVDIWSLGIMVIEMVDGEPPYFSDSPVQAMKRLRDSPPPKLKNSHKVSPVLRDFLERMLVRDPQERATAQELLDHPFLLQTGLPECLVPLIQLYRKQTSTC
Chain of Serine/threonine-protein kinase 38 (Q15208 whole entry): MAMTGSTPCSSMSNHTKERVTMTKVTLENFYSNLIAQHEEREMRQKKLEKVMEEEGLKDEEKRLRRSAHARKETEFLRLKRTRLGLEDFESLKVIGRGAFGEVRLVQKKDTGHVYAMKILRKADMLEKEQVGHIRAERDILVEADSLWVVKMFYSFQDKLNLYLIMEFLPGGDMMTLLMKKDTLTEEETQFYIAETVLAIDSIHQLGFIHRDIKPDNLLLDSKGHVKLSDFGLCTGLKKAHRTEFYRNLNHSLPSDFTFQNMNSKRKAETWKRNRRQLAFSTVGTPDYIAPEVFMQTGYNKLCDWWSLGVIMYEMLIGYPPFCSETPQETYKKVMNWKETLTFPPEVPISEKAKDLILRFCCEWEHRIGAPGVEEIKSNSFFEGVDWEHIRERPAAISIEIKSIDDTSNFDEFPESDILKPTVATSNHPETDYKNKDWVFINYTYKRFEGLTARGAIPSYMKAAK
Chain of Serine/threonine-protein kinase pim-2 (Q9P1W9 whole entry): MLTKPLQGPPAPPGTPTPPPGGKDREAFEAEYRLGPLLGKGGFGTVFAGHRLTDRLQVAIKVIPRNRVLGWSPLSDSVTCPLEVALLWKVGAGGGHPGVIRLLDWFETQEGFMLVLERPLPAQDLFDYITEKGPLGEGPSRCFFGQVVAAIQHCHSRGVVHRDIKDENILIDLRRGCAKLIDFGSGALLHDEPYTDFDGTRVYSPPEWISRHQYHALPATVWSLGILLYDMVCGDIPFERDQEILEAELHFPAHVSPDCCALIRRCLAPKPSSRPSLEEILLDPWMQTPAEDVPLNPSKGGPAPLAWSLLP
Chain of Serine/threonine-protein kinase 24 (Q9Y6E0 whole entry): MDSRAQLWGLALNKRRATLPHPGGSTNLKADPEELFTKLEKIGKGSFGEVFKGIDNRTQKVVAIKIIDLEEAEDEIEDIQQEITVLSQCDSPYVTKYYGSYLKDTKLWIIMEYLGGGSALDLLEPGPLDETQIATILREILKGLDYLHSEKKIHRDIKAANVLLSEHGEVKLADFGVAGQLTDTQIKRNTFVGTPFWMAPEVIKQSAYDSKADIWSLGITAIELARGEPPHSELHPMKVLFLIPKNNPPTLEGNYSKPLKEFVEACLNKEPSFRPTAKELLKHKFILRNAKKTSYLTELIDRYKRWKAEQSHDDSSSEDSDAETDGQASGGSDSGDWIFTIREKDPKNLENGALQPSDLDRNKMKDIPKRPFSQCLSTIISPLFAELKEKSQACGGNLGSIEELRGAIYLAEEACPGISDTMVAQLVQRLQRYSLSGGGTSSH
Chain of Dual specificity protein kinase CLK4 (Q9HAZ1 whole entry): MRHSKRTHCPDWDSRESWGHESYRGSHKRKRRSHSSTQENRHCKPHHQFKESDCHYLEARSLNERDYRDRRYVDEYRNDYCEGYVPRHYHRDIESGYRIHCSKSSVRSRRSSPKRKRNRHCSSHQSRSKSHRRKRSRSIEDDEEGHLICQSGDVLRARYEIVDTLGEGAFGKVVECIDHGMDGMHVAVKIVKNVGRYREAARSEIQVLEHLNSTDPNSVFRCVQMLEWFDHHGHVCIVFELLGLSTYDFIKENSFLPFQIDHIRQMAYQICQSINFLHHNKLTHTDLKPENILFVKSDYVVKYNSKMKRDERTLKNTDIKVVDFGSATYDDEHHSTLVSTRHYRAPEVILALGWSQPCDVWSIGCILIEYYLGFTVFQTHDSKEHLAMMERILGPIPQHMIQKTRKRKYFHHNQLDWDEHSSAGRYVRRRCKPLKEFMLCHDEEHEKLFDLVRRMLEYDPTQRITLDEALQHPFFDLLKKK

| Kd [1] | Kd [2] | Kd [3] | Kd [4] | Kd [5] | Kd [7] | Kd [8] | Kd [9] | Kd [10] | Kd [11] | Kd [13] | Structure (SMILES) | Kd [6] | Kd (UMP-CMP kinase) | Kd [12] | Kd [14] |
| --- | --- | --- | --- | --- | --- | --- | --- | --- | --- | --- | --- | --- | --- | --- | --- |
| > 30 µM (inactive) | > 30 µM (inactive) | > 30 µM (inactive) | > 30 µM (inactive) | > 30 µM (inactive) | > 30 µM (inactive) | > 30 µM (inactive) | > 30 µM (inactive) | – | – | – | Cc1cc(Nc2ncc(Cl)c(Nc3ccccc3S(=O)(=O)C(C)C)n2)c(OC(C)C)cc1C1CCNCC1 [CERITINIB] | > 30 µM (inactive) | – | – | – |
| > 30 µM (inactive) | > 30 µM (inactive) | > 30 µM (inactive) | > 30 µM (inactive) | – | > 30 µM (inactive) | > 30 µM (inactive) | > 30 µM (inactive) | > 30 µM (inactive) | > 30 µM (inactive) | > 30 µM (inactive) | COc1ncc(-c2ccc3nccc(-c4ccnnc4)c3c2)cc1NS(=O)(=O)c1ccc(F)cc1F [OMIPALISIB] | – | > 30 µM (inactive) | > 30 µM (inactive) | – |
| > 30 µM (inactive) | – | > 30 µM (inactive) | – | > 30 µM (inactive) | – | > 30 µM (inactive) | > 30 µM (inactive) | > 30 µM (inactive) | > 30 µM (inactive) | > 30 µM (inactive) | C[C@@H](N)c1ccc(C(=O)Nc2ccnc3[nH]ccc23)cc1 [Y-39983] | – | – | – | > 30 µM (inactive) |

| Structure (SMILES) | Kd [1] | Kd [2] | Kd [3] | Kd [4] | Kd [5] | Kd [7] | Kd [8] | Kd [9] | Kd [10] | Kd [11] | Kd [13] | Kd [6] | Kd (UMP-CMP kinase) | Kd [12] | Kd [14] |
| --- | --- | --- | --- | --- | --- | --- | --- | --- | --- | --- | --- | --- | --- | --- | --- |
| CCOc1cc2ncc(C#N)c(Nc3ccc(F)c(Cl)c3)c2cc1NC(=O)/C=C/CN(C)C [PELITINIB] | – | > 30 µM (inactive) | > 30 µM (inactive) | > 30 µM (inactive) | > 30 µM (inactive) | – | > 30 µM (inactive) | > 30 µM (inactive) | > 30 µM (inactive) | – | – | > 30 µM (inactive) | > 30 µM (inactive) | > 30 µM (inactive) | > 30 µM (inactive) |
